The source of these data is PMC6892585 (Bioorganic & medicinal chemistry, 2019).

Some results are limits rather than exact numbers.

The subject of the data set is Caco-2 cells.

Turning to Lucifer yellow [LY], the “permeability (Papp)” value was not above 1 ×10⁻⁶ cm/s.
